Source: patent US20210100834A1, “COMPOSITION CONTAINING A CHLORIDE SALT FOR USE IN PREGNANT ANIMALS” (Nutreco IP Assets B.V., priority 2017, published 2021)

Tested on: pregnant sows
Assay: Drinking water treatment of pregnant sows with calcium chloride and phosphoric acid, perinatal phenomena
Assay type: in vivo
Description: In another experiment, cations and anions were added to drinking water in such a balance, that the daily cation/anion balance of diet plus drinking water was reduced. For this, the drinking water contained 1.5 g calcium chloride per liter. […] In this experiment, next to the calcium chloride to reduce the daily cation/anion balance, a calcium binder (phosphoric acid, PhA)) was added in a concentration of 0.01 mol/liter.
It is believed that binding of dietary calcium in the gut and the inherent effect of reducing the amount of calcium available to the animal has as a consequence that the animal is triggered to mobilise calcium from its own mineral reserves in the bones. Therefore, when demand for calcium is increased as in parturition, the animal is more prepared to face this demand, and better equipped to maintain blood Ca levels.

O=P(O)(O)O [PhA, phosphoric acid]
Postnatal mortality (in vivo): 9.4% | effect of addition of calcium binder on perinatal mortality (in vivo): no negative effect | Piglets with colostrum intake <250 g/24 h (treated drinking water): 15.1% | Average colostrum intake per piglet (treated drinking water, calculated from weight gain): 408 g/24 h
